Assays:
Type in all cases: cell-based
[1] = test system: third stage larvae of Haemonchus contortus; assay: Haemonchus contortus L3 (HcL3) Assay; conditions: 96 h, read-out: HcL3 Minimum Effective Dose (MED)
[2] = test system: 4th stage larvae (L4) of Dirofilaria immitis; assay: Dirofilaria immitis, L4 Stage (DiL4) In Vitro Assay; conditions: Dirofilaria immitis, 72 h, read-out: DiL4 Minimum Effective Dose (MED), approximately 72 hours incubation; L4 larvae assessed for survival or paralysis
[3] = test system: microfilariae of Dirofilaria immitis; assay: Dirofilaria immitis, Microfilaria (DiMF) In vitro Assay; conditions: 72 h, read-out: DiMF Minimum Effective Dose (MED), approximately 72 hours incubation, microfilariae assessed for survival or paralysis

In the case of `CCOc1ccn(Cc2ccc(C[C@H]3OC(=O)[C@H](CC(C)C)N(C)C(=O)[C@@H](C)OC(=O)[C@H](CC(C)C)N(C)C(=O)[C@@H](Cc4ccc(Cn5nccc5OCC)cc4)OC(=O)[C@H](CC(C)C)N(C)C(=O)[C@@H](C)OC(=O)[C@H](CC(C)C)N(C)C3=O)cc2)n1` [Example 1a-36, (3S,6R,9S,12R,15S,18R,21S,24R)-6-(4-((3-ethoxy-1H-pyrazol-1-yl)methyl)benzyl)-18-(4-((5-ethoxy-1H-pyrazol-1-yl)methyl)benzyl)-3,9,15,21-tetraisobutyl-4,10,12,16,22,24-hexamethyl-1,7,13,19-tetraoxa-4,10,16,22-tetraazacyclotetracosan-2,5,8,11,14,17,20,23-octaone], the minimal effective concentration [1] is reported as 1 to 10 µM and the minimal effective concentration [2] is reported as 0.0001 to 0.001 µM.
For `COCc1ccn(Cc2ccc(C[C@H]3OC(=O)[C@H](CC(C)C)N(C)C(=O)[C@@H](C)OC(=O)[C@H](CC(C)C)N(C)C(=O)[C@@H](Cc4ccc(Cn5nccc5COC)cc4)OC(=O)[C@H](CC(C)C)N(C)C(=O)[C@@H](C)OC(=O)[C@H](CC(C)C)N(C)C3=O)cc2)n1` [Example 1a-37, (3S,6R,9S,12R,15S,18R,21S,24R)-3,9,15,21-tetraisobutyl-6-(4-((3-(methoxymethyl)-1H-pyrazol-1-yl)methyl)benzyl)-18-(4-((5-(methoxymethyl)-1H-pyrazol-1-yl)methyl)benzyl)-4,10,12,16,22,24-hexamethyl-1,7,13,19-tetraoxa-4,10,16,22-tetraazacyclotetracosan-2,5,8,11,14,17,20,23-octaone], the minimal effective concentration [1] was 1 to 10 µM and the minimal effective concentration [2] was 0.0001 to 0.001 µM.
Molecule `CC(C)C[C@H]1C(=O)O[C@H](Cc2ccc(Cn3nc(C#N)cc3C#N)cc2)C(=O)N(C)[C@@H](CC(C)C)C(=O)O[C@H](C)C(=O)N(C)[C@@H](CC(C)C)C(=O)O[C@H](Cc2ccccc2)C(=O)N(C)[C@@H](CC(C)C)C(=O)O[C@H](C)C(=O)N1C` [Example 2-62, 1-(4-(((2R,5S,8R,11S,14R,17S,20R,23S)-14-benzyl-5,11,17,23-tetraisobutyl-4,8,10,16,20,22-hexamethyl-3,6,9,12,15,18,21,24-octaoxo-1,7,13,19-tetraoxa-4,10,16,22-tetraazacyclotetracosan-2-yl)methyl)benzyl)-1H-pyrazole-3,5-dicarbonitrile] has a minimal effective concentration [2] of 0.0001 to 0.001 µM and a minimal effective concentration [3] of 0.001 to 0.01 µM.
For `CC(C)C[C@H]1C(=O)O[C@H](Cc2ccc(Cn3cc(C#Cc4ccccc4)cn3)cc2)C(=O)N(C)[C@@H](CC(C)C)C(=O)O[C@H](C)C(=O)N(C)[C@@H](CC(C)C)C(=O)O[C@H](Cc2ccccc2)C(=O)N(C)[C@@H](CC(C)C)C(=O)O[C@H](C)C(=O)N1C` [Example 2-64, (3S,6R,9S,12R,15S,18R,21S,24R)-6-benzyl-3,9,15,21-tetraisobutyl-4,10,12,16,22,24-hexamethyl-18-(4-((4-(phenylethynyl)-1H-pyrazol-1-yl)methyl)benzyl)-1,7,13,19-tetraoxa-4,10,16,22-tetraazacyclotetracosan-2,5,8,11,14,17,20,23-octaone], the minimal effective concentration [2] was 0.0001 to 0.001 µM and the minimal effective concentration [3] was 0.01 to 0.1 µM.
With `CC#Cc1cnn(Cc2ccc(C[C@H]3OC(=O)[C@H](CC(C)C)N(C)C(=O)[C@@H](C)OC(=O)[C@H](CC(C)C)N(C)C(=O)[C@@H](Cc4ccccc4)OC(=O)[C@H](CC(C)C)N(C)C(=O)[C@@H](C)OC(=O)[C@H](CC(C)C)N(C)C3=O)cc2)c1` [Example 2-76, (3S,6R,9S,12R,15S,18R,21S,24R)-6-benzyl-3,9,15,21-tetraisobutyl-4,10,12,16,22,24-hexamethyl-18-(4-((4-(prop-1-yn-1-yl)-1H-pyrazol-1-yl)methyl)benzyl)-1,7,13,19-tetraoxa-4,10,16,22-tetraazacyclotetracosan-2,5,8,11,14,17,20,23-octaone] the minimal effective concentration [2] was 0.0001 to 0.001 µM and the minimal effective concentration [3] was 0.001 to 0.01 µM.
For `CCC#Cc1cnn(Cc2ccc(C[C@H]3OC(=O)[C@H](CC(C)C)N(C)C(=O)[C@@H](C)OC(=O)[C@H](CC(C)C)N(C)C(=O)[C@@H](Cc4ccccc4)OC(=O)[C@H](CC(C)C)N(C)C(=O)[C@@H](C)OC(=O)[C@H](CC(C)C)N(C)C3=O)cc2)c1` [Example 2-77, (3S,6R,9S,12R,15S,18R,21S,24R)-6-benzyl-18-(4-((4-(but-1-yn-1-yl)-1H-pyrazol-1-yl)methyl)benzyl)-3,9,15,21-tetraisobutyl-4,10,12,16,22,24-hexamethyl-1,7,13,19-tetraoxa-4,10,16,22-tetraazacyclotetracosan-2,5,8,11,14,17,20,23-octaone], the minimal effective concentration [2] was 0.0001 to 0.001 µM and the minimal effective concentration [3] was 0.001 to 0.01 µM.
`CC(C)C[C@H]1C(=O)O[C@H](Cc2cccc(Cn3cc(Br)cn3)c2)C(=O)N(C)[C@@H](CC(C)C)C(=O)O[C@H](C)C(=O)N(C)[C@@H](CC(C)C)C(=O)O[C@H](Cc2cccc(Cn3cc(Br)cn3)c2)C(=O)N(C)[C@@H](CC(C)C)C(=O)O[C@H](C)C(=O)N1C` [Example 4-2, (3S,6R,9S,12R,15S,18R,21S,24R)-6,18-bis(3-((4-bromo-1H-pyrazol-1-yl)methyl)benzyl)-3,9,15,21-tetraisobutyl-4,10,12,16,22,24-hexamethyl-1,7,13,19-tetraoxa-4,10,16,22-tetraazacyclotetracosan-2,5,8,11,14,17,20,23-octaone] was tested, and the minimal effective concentration [2] was 0.0001 to 0.001 µM and the minimal effective concentration [3] was 0.001 to 0.01 µM.
Work on `CC(C)C[C@H]1C(=O)O[C@H](Cc2cccc(Cn3ccnc3Br)c2)C(=O)N(C)[C@@H](CC(C)C)C(=O)O[C@H](C)C(=O)N(C)[C@@H](CC(C)C)C(=O)O[C@H](Cc2ccc(Cn3ccnc3Br)cc2)C(=O)N(C)[C@@H](CC(C)C)C(=O)O[C@H](C)C(=O)N1C` [Example 7-3, (3S,6R,9S,12R,15S,18R,21S,24R)-6-[[3-[(2-bromoimidazol-1-yl)methyl]phenyl]methyl]-18-[[4-[(2-bromoimidazol-1-yl)methyl]phenyl]methyl]-3,9,15,21-tetraisobutyl-4,10,12,16,22,24-hexamethyl-1,7,13,19-tetraoxa-4,10,16,22-tetrazacyclotetracosane-2,5,8,11,14,17,20,23-octaone] yielded a minimal effective concentration [2] of 0.0001 to 0.001 µM and a minimal effective concentration [3] of 0.001 to 0.01 µM.
With `CC(C)C[C@H]1C(=O)O[C@H](Cc2ccc(Cn3ccnc3C(F)(F)F)cc2)C(=O)N(C)[C@@H](CC(C)C)C(=O)O[C@H](C)C(=O)N(C)[C@@H](CC(C)C)C(=O)O[C@H](Cc2ccccc2)C(=O)N(C)[C@@H](CC(C)C)C(=O)O[C@H](C)C(=O)N1C` [Example 8-12, (3S,6R,9S,12R,15S,18R,21S,24R)-6-benzyl-3,9,15,21-tetraisobutyl-4,10,12,16,22,24-hexamethyl-18-(4-((2-(trifluoromethyl)-1H-imidazol-1-yl)methyl)benzyl)-1,7,13,19-tetraoxa-4,10,16,22-tetraazacyclotetracosan-2,5,8,11,14,17,20,23-octaone] the minimal effective concentration [2] was 0.0001 to 0.001 µM and the minimal effective concentration [3] was 0.001 to 0.01 µM.
With `CC(C)C[C@H]1C(=O)O[C@H](Cc2ccc(Cn3ccc(C#N)c3)cc2)C(=O)N(C)[C@@H](CC(C)C)C(=O)O[C@H](C)C(=O)N(C)[C@@H](CC(C)C)C(=O)O[C@H](Cc2ccc(Cn3ccc(C#N)c3)cc2)C(=O)N(C)[C@@H](CC(C)C)C(=O)O[C@H](C)C(=O)N1C` [Example 9-25, 1-[[4-[[(2R,5S,8R,11S,14R,17S,20R,23S)-14-[[4-[(3-cyanopyrrol-1-yl)methyl]phenyl]methyl]-5,11,17,23-tetraisobutyl-4,8,10,16,20,22-hexamethyl-3,6,9,12,15,18,21,24-octaoxo-1,7,13,19-tetraoxa-4,10,16,22-tetrazacyclotetracos-2-yl]methyl]phenyl]methyl]pyrrole-3-carbonitrile] the minimal effective concentration [2] was 0.0001 to 0.001 µM and the minimal effective concentration [3] was 0.001 to 0.01 µM.
For `CC(C)C[C@H]1C(=O)O[C@H](Cc2ccc(Cn3ncnc3-c3ccc(Cl)cc3)cc2)C(=O)N(C)[C@@H](CC(C)C)C(=O)O[C@H](C)C(=O)N(C)[C@@H](CC(C)C)C(=O)O[C@H](Cc2ccc(Cn3ncnc3-c3ccc(Cl)cc3)cc2)C(=O)N(C)[C@@H](CC(C)C)C(=O)O[C@H](C)C(=O)N1C` [Example 9-58, (3S,6R,9S,12R,15S,18R,21S,24R)-6,18-bis(4-((5-(4-chlorophenyl)-1H-1,2,4-triazol-1-yl)methyl)benzyl)-3,9,15,21-tetraisobutyl-4,10,12,16,22,24-hexamethyl-1,7,13,19-tetraoxa-4,10,16,22-tetraazacyclotetracosan-2,5,8,11,14,17,20,23-octaone], the minimal effective concentration [2] was 0.001 to 0.01 µM and the minimal effective concentration [3] was 0.01 to 0.1 µM.
Molecule `CC(C)C[C@H]1C(=O)O[C@H](Cc2ccc(CN3C(=O)CSc4cccnc43)cc2)C(=O)N(C)[C@@H](CC(C)C)C(=O)O[C@H](C)C(=O)N(C)[C@@H](CC(C)C)C(=O)O[C@H](Cc2ccc(CN3C(=O)CSc4cccnc43)cc2)C(=O)N(C)[C@@H](CC(C)C)C(=O)O[C@H](C)C(=O)N1C` [Example 9-61, (3S,6R,9S,12R,15S,18R,21S,24R)-3,9,15,21-tetraisobutyl-4,6,10,16,18,22-hexamethyl-12,24-bis[[4-[(3-oxopyrido[3,2-b][1,4]thiazin-4-yl)methyl]phenyl]methyl]-1,7,13,19-tetraoxa-4,10,16,22-tetrazacyclotetracosane-2,5,8,11,14,17,20,23-octaone] has a minimal effective concentration [2] of 0.001 to 0.01 µM and a minimal effective concentration [3] of 0.01 to 0.1 µM.
`CC(C)C[C@H]1C(=O)O[C@H](Cc2ccc(CN3CCOc4ncccc43)cc2)C(=O)N(C)[C@@H](CC(C)C)C(=O)O[C@H](C)C(=O)N(C)[C@@H](CC(C)C)C(=O)O[C@H](Cc2ccccc2)C(=O)N(C)[C@@H](CC(C)C)C(=O)O[C@H](C)C(=O)N1C` [Example 10-38, (3S,6R,9S,12R,15S,18R,21S,24R)-6-benzyl-18-[[4-(2,3-dihydropyrido[2,3-b][1,4]oxazin-1-ylmethyl)phenyl]methyl]-3,9,15,21-tetraisobutyl-4,10,12,16,22,24-hexamethyl-1,7,13,19-tetraoxa-4, 10,16,22-tetrazacyclotetracosane-2,5,8,11,14,17,20,23-octaone] was tested, and the minimal effective concentration [2] was 0.0001 to 0.001 µM and the minimal effective concentration [3] was 0.001 to 0.01 µM.

From patent publication US11331369B2, “Endoparasitic depsipeptides” (Zoetis Services LLC, priority 2017, dated 2022)
